How the values were obtained:
[1] = molecular target: T1, PAK1 (Homo sapiens, UniProt Q13153); assay: HotSpot kinase assay; type: biochemical; details: read-out: % Enzyme Activity (relative to DMSO controls)
T1 construct: purchased Reaction Biology Corporation

[2] = molecular target: T2, MLK1/MAP3K9 (Homo sapiens, UniProt P80192); assay: HotSpot kinase assay; type: biochemical; details: read-out: % Enzyme Activity (relative to DMSO controls)
T2 construct: purchased Reaction Biology Corporation

[3] = molecular target: T3, P38b/MAPK11 (Homo sapiens, UniProt Q15759); assay: HotSpot kinase assay; type: biochemical; details: read-out: % Enzyme Activity (relative to DMSO controls)
T3 construct: purchased Reaction Biology Corporation

[4] = molecular target: T4, MEKK6 (Homo sapiens, UniProt O95382); assay: HotSpot kinase assay; type: biochemical; details: read-out: % Enzyme Activity (relative to DMSO controls)
T4 construct: purchased Reaction Biology Corporation

[5] = molecular target: T5, PRKX (Homo sapiens, UniProt P51817); assay: HotSpot kinase assay; type: biochemical; details: read-out: % Enzyme Activity (relative to DMSO controls)
T5 construct: purchased Reaction Biology Corporation

[6] = molecular target: T6, MARK3 (Homo sapiens, UniProt P27448); assay: HotSpot kinase assay; type: biochemical; details: read-out: % Enzyme Activity (relative to DMSO controls)
T6 construct: purchased Reaction Biology Corporation

[7] = molecular target: T7, BRAF (Homo sapiens, UniProt P15056); assay: HotSpot kinase assay; type: biochemical; details: read-out: % Enzyme Activity (relative to DMSO controls)
T7 construct: purchased Reaction Biology Corporation

[8] = molecular target: T8, KHS/MAP4K5 (Homo sapiens, UniProt Q9Y4K4); assay: HotSpot kinase assay; type: biochemical; details: read-out: % Enzyme Activity (relative to DMSO controls)
T8 construct: purchased Reaction Biology Corporation

[9] = molecular target: T9, PKCg (Homo sapiens, UniProt P05129); assay: HotSpot kinase assay; type: biochemical; details: read-out: % Enzyme Activity (relative to DMSO controls)
T9 construct: purchased Reaction Biology Corporation

[10] = molecular target: T10, DYRK3 (Homo sapiens, UniProt O43781); assay: HotSpot kinase assay; type: biochemical; details: read-out: % Enzyme Activity (relative to DMSO controls)
T10 construct: purchased Reaction Biology Corporation

[11] = system: VSV-S; type: cell-based, VSV pseudotyped with SARS-CoV-2 spike
[12] = molecular target: T11, PKAcg (Homo sapiens, UniProt P22612); assay: HotSpot kinase assay; type: biochemical; details: read-out: % Enzyme Activity (relative to DMSO controls)
T11 construct: purchased Reaction Biology Corporation

[13] = molecular target: T12, SGK3/SGKL (Homo sapiens, UniProt Q96BR1); assay: HotSpot kinase assay; type: biochemical; details: read-out: % Enzyme Activity (relative to DMSO controls)
T12 construct: purchased Reaction Biology Corporation

[14] = molecular target: T13, CDC7/DBF4 (Homo sapiens, UniProt O00311); assay: HotSpot kinase assay; type: biochemical; details: read-out: % Enzyme Activity (relative to DMSO controls)
T13 construct: purchased Reaction Biology Corporation

[15] = molecular target: T14, PKN1/PRK1 (Homo sapiens, UniProt Q16512); assay: HotSpot kinase assay; type: biochemical; details: read-out: % Enzyme Activity (relative to DMSO controls)
T14 construct: purchased Reaction Biology Corporation

[16] = molecular target: T15, CDK2/cyclin A1 (Homo sapiens, UniProt P24941); assay: HotSpot kinase assay; type: biochemical; details: read-out: % Enzyme Activity (relative to DMSO controls)
T15 construct: purchased Reaction Biology Corporation

[17] = molecular target: T16, ERK5/MAPK7 (Homo sapiens, UniProt Q13164); assay: HotSpot kinase assay; type: biochemical; details: read-out: % Enzyme Activity (relative to DMSO controls)
T16 construct: purchased Reaction Biology Corporation

[18] = molecular target: T17, TAOK1 (Homo sapiens, UniProt Q7L7X3); assay: HotSpot kinase assay; type: biochemical; details: read-out: % Enzyme Activity (relative to DMSO controls)
T17 construct: purchased Reaction Biology Corporation

[19] = molecular target: T18, DNA-PK (Homo sapiens, UniProt P78527); assay: HotSpot kinase assay; type: biochemical; details: read-out: % Enzyme Activity (relative to DMSO controls)
T18 construct: purchased Reaction Biology Corporation

[20] = molecular target: T19, EPHA7 (Homo sapiens, UniProt Q15375); assay: HotSpot kinase assay; type: biochemical; details: read-out: % Enzyme Activity (relative to DMSO controls)
T19 construct: purchased Reaction Biology Corporation

[21] = molecular target: T20, CDK2/cyclin E2 (Homo sapiens, UniProt P24941); assay: HotSpot kinase assay; type: biochemical; details: read-out: % Enzyme Activity (relative to DMSO controls)
T20 construct: purchased Reaction Biology Corporation

[22] = molecular target: T21, CLK3 (Homo sapiens, UniProt P49761); assay: HotSpot kinase assay; type: biochemical; details: read-out: % Enzyme Activity (relative to DMSO controls)
T21 construct: purchased Reaction Biology Corporation

[23] = molecular target: T22, PKAcb (Homo sapiens, UniProt P22694); assay: HotSpot kinase assay; type: biochemical; details: read-out: % Enzyme Activity (relative to DMSO controls)
T22 construct: purchased Reaction Biology Corporation

[24] = molecular target: T23, MARK1 (Homo sapiens, UniProt Q9P0L2); assay: HotSpot kinase assay; type: biochemical; details: read-out: % Enzyme Activity (relative to DMSO controls)
T23 construct: purchased Reaction Biology Corporation

[25] = molecular target: T24, SNRK (Homo sapiens, UniProt Q9NRH2); assay: HotSpot kinase assay; type: biochemical; details: read-out: % Enzyme Activity (relative to DMSO controls)
T24 construct: purchased Reaction Biology Corporation

[26] = molecular target: T25, ROCK2 (Homo sapiens, UniProt O75116); assay: HotSpot kinase assay; type: biochemical; details: read-out: % Enzyme Activity (relative to DMSO controls)
T25 construct: purchased Reaction Biology Corporation

[27] = molecular target: T26, EIF2AK4 (Homo sapiens, UniProt Q9P2K8); assay: HotSpot kinase assay; type: biochemical; details: read-out: % Enzyme Activity (relative to DMSO controls)
T26 construct: purchased Reaction Biology Corporation

[28] = molecular target: T27, RON/MST1R (Homo sapiens, UniProt Q04912); assay: HotSpot kinase assay; type: biochemical; details: read-out: % Enzyme Activity (relative to DMSO controls)
T27 construct: purchased Reaction Biology Corporation

[29] = molecular target: T28, ALK1/ACVRL1 (Homo sapiens, UniProt P37023); assay: HotSpot kinase assay; type: biochemical; details: read-out: % Enzyme Activity (relative to DMSO controls)
T28 construct: purchased Reaction Biology Corporation

[30] = molecular target: T29, MLK2/MAP3K10 (Homo sapiens, UniProt Q02779); assay: HotSpot kinase assay; type: biochemical; details: read-out: % Enzyme Activity (relative to DMSO controls)
T29 construct: purchased Reaction Biology Corporation

[31] = molecular target: T30, MYLK3 (Homo sapiens, UniProt Q32MK0); assay: HotSpot kinase assay; type: biochemical; details: read-out: % Enzyme Activity (relative to DMSO controls)
T30 construct: purchased Reaction Biology Corporation

[32] = molecular target: T31, GSK3b (Homo sapiens, UniProt P49841); assay: biochemical; details: read-out: % Enzyme Activity (relative to DMSO controls)
T31 construct: purchased Reaction Biology Corporation

[33] = molecular target: T32, CAMK1d (Homo sapiens, UniProt Q8IU85); assay: HotSpot kinase assay; type: biochemical; details: read-out: % Enzyme Activity (relative to DMSO controls)
T32 construct: purchased Reaction Biology Corporation

[34] = molecular target: T33, JNK1 (Homo sapiens, UniProt P45983); assay: HotSpot kinase assay; type: biochemical; details: read-out: % Enzyme Activity (relative to DMSO controls)
T33 construct: purchased Reaction Biology Corporation

[35] = molecular target: T34, WNK2 (Homo sapiens, UniProt Q9Y3S1); assay: HotSpot kinase assay; type: biochemical; details: read-out: % Enzyme Activity (relative to DMSO controls)
T34 construct: purchased Reaction Biology Corporation

[36] = molecular target: T35, CAMK2b (Homo sapiens, UniProt Q13554); assay: HotSpot kinase assay; type: biochemical; details: read-out: % Enzyme Activity (relative to DMSO controls)
T35 construct: purchased Reaction Biology Corporation

[37] = molecular target: T36, CDK16/cyclin Y (PCTAIRE) (Homo sapiens, UniProt Q00536); assay: HotSpot kinase assay; type: biochemical; details: read-out: % Enzyme Activity (relative to DMSO controls)
T36 construct: purchased Reaction Biology Corporation

[38] = molecular target: T37, PKCmu/PRKD1 (Homo sapiens, UniProt Q15139); assay: HotSpot kinase assay; type: biochemical; details: read-out: % Enzyme Activity (relative to DMSO controls)
T37 construct: purchased Reaction Biology Corporation

[39] = molecular target: T38, JAK2 (Homo sapiens, UniProt O60674); assay: HotSpot kinase assay; type: biochemical; details: read-out: % Enzyme Activity (relative to DMSO controls)
T38 construct: purchased Reaction Biology Corporation

[40] = molecular target: T39, TNK1 (Homo sapiens, UniProt Q13470); assay: HotSpot kinase assay; type: biochemical; details: read-out: % Enzyme Activity (relative to DMSO controls)
T39 construct: purchased Reaction Biology Corporation

[41] = molecular target: T40, EEF2K (Homo sapiens, UniProt O00418); assay: HotSpot kinase assay; type: biochemical; details: read-out: % Enzyme Activity (relative to DMSO controls)
T40 construct: purchased Reaction Biology Corporation

[42] = molecular target: T41, IRAK4 (Homo sapiens, UniProt Q9NWZ3); assay: HotSpot kinase assay; type: biochemical; details: read-out: % Enzyme Activity (relative to DMSO controls)
T41 construct: purchased Reaction Biology Corporation

[43] = molecular target: T42, CAMK2g (Homo sapiens, UniProt Q13555); assay: HotSpot kinase assay; type: biochemical; details: read-out: % Enzyme Activity (relative to DMSO controls)
T42 construct: purchased Reaction Biology Corporation

T39 sequence (Q13470 whole entry): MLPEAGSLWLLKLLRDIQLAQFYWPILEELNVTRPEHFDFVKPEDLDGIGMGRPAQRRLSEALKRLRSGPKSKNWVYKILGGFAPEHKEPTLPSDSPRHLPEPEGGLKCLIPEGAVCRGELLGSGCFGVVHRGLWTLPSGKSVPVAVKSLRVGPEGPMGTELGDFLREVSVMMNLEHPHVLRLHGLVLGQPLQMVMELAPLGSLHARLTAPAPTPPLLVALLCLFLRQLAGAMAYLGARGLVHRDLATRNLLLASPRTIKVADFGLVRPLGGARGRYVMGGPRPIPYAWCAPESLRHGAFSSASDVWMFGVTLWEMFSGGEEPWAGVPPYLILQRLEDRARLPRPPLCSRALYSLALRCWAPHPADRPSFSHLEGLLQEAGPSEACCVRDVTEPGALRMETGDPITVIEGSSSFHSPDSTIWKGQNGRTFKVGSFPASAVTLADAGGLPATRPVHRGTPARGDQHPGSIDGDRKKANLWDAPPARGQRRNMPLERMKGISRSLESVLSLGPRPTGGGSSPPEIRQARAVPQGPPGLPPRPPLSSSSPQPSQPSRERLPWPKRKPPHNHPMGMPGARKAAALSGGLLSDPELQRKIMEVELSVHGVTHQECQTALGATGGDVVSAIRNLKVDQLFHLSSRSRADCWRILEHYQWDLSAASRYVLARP
T28 sequence (P37023 22-503): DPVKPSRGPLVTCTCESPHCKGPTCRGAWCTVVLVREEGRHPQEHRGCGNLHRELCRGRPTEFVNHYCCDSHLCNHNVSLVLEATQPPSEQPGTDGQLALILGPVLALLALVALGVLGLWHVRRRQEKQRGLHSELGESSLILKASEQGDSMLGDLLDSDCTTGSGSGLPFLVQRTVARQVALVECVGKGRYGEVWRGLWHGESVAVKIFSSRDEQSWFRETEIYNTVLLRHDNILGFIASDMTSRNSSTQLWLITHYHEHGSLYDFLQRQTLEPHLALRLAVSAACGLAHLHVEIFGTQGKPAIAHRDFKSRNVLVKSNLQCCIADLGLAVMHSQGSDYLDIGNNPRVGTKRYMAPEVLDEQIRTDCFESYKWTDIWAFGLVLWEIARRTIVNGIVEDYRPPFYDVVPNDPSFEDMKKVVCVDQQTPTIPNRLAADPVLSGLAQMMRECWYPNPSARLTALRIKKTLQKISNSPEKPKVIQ
T21 sequence (P49761 whole entry): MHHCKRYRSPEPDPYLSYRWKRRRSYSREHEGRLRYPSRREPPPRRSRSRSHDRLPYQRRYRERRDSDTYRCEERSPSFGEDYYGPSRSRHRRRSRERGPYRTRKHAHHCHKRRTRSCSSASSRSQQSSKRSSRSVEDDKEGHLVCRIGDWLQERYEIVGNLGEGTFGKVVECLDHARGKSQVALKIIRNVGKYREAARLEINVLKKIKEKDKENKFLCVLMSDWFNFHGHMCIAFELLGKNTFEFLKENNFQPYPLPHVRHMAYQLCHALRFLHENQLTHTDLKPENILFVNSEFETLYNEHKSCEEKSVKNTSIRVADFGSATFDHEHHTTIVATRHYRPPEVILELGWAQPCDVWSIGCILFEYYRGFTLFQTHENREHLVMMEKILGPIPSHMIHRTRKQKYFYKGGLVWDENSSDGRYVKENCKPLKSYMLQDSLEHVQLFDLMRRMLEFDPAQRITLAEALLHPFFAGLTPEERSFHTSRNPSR
T6 sequence (P27448 whole entry): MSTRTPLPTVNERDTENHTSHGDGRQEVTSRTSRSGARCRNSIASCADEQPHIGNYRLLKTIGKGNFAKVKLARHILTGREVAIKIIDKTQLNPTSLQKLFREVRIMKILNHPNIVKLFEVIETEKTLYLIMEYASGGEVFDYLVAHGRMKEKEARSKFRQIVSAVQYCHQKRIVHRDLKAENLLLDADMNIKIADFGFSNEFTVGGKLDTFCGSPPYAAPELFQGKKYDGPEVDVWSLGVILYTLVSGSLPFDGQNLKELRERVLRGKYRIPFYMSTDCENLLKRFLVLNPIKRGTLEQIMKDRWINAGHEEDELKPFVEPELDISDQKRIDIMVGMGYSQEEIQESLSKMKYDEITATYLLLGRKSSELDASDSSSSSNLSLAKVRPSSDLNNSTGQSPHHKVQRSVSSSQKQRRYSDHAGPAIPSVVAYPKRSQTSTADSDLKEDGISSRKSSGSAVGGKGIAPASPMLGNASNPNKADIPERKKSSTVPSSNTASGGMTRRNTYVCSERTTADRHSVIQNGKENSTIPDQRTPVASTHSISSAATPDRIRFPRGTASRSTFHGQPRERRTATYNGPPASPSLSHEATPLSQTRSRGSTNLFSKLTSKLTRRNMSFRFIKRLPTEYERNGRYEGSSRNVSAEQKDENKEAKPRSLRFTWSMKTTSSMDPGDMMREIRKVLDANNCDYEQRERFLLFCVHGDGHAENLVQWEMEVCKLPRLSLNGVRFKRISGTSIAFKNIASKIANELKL
T14 sequence (Q16512 whole entry): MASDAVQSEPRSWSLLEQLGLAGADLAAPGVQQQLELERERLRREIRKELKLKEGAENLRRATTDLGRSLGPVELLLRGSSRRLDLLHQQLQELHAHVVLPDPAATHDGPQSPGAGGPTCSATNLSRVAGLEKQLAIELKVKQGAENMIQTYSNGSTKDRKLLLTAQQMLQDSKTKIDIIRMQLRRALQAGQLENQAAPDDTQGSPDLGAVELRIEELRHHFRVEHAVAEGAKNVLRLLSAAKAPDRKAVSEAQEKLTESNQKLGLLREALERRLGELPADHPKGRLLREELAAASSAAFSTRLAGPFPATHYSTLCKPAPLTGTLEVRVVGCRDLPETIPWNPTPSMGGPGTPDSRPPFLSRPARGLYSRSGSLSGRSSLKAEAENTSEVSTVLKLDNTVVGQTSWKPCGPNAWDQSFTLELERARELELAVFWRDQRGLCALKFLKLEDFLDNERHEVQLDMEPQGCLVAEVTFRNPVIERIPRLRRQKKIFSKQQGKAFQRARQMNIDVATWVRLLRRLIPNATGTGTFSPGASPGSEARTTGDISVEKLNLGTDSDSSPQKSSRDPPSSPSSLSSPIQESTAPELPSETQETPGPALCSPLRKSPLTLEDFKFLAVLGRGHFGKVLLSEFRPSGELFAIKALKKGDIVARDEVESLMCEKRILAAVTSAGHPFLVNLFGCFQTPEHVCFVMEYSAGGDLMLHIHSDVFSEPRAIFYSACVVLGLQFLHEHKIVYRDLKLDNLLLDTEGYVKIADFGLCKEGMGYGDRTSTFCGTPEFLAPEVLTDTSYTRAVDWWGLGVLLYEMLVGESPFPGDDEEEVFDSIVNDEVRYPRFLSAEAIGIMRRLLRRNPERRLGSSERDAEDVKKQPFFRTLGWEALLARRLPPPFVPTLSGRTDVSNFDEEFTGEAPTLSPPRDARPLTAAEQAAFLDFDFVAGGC
T31 sequence (P49841 whole entry): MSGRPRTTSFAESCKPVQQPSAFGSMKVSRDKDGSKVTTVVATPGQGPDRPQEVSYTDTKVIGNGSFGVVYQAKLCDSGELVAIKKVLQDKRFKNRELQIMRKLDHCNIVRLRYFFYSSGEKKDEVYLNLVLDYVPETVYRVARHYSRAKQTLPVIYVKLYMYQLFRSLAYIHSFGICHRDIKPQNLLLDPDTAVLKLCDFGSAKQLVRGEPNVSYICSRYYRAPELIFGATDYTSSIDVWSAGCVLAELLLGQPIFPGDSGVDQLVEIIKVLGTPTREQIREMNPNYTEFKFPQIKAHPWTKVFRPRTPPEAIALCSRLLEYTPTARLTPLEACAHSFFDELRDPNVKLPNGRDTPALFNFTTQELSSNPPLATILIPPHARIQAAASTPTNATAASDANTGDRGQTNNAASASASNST
T33 sequence (P45983 whole entry): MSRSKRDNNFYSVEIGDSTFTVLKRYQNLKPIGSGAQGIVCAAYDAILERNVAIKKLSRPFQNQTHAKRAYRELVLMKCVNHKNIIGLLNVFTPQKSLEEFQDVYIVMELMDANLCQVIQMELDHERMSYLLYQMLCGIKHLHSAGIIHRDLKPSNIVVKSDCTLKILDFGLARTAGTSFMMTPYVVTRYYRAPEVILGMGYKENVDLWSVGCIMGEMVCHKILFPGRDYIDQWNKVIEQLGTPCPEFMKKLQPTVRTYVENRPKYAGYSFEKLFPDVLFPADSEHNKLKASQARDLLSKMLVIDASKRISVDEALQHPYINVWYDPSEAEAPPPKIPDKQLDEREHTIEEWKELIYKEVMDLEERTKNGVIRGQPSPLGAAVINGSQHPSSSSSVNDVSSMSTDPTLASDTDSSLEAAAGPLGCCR
T12 sequence (Q96BR1 whole entry): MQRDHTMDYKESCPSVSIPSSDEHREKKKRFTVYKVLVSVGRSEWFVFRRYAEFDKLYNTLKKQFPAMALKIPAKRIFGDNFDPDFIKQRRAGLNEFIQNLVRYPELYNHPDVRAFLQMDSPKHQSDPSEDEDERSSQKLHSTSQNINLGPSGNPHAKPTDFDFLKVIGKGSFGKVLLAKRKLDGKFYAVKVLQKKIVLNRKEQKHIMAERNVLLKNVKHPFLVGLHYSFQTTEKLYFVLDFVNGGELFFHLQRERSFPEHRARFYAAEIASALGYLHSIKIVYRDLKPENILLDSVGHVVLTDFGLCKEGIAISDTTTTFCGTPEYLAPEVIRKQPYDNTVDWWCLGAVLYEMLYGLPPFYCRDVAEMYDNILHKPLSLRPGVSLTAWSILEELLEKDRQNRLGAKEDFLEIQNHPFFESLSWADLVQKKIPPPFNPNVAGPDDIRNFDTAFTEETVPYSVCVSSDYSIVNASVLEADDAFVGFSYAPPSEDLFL

Q: What does the source list for `CO[C@@H]1[C@H](N(C)C(=O)CCC(=O)NCc2cn(CCCS(=O)(=O)O)nn2)C[C@H]2O[C@]1(C)n1c3ccccc3c3c4c(c5c6ccccc6n2c5c31)C(=O)NC4` [CIMSS]?
A: remaining activity at 10 µM [1]: 8.08%; remaining activity at 10 µM [2]: 4.06%; remaining activity at 10 µM [3]: 84.5%; remaining activity at 10 µM [4]: 110%; remaining activity at 10 µM [5]: 9.56%; remaining activity at 10 µM [6]: 1.8%; remaining activity at 10 µM [7]: 132%; remaining activity at 10 µM [8]: 5.19%; remaining activity at 10 µM [9]: 1.77%; remaining activity at 10 µM [10]: 28.2%; VSV-S infection [11]: inhibited; remaining activity at 10 µM [12]: 2.07%; remaining activity at 10 µM [13]: 59.6%; remaining activity at 10 µM [14]: 3.98%; remaining activity at 10 µM [15]: 2.22%; remaining activity at 10 µM [16]: 7.95%; remaining activity at 10 µM [17]: 84.5%; remaining activity at 10 µM [18]: 6.83%; remaining activity at 10 µM [19]: 98.2%; remaining activity at 10 µM [20]: 6.91%; remaining activity at 10 µM [21]: 11.8%; remaining activity at 10 µM [22]: 35.4%; remaining activity at 10 µM [23]: 1.62%; remaining activity at 10 µM [24]: 1.18%; remaining activity at 10 µM [25]: 72.5%; remaining activity at 10 µM [26]: 12.7%; remaining activity at 10 µM [27]: 9.5%; remaining activity at 10 µM [28]: 25.1%; remaining activity at 10 µM [29]: 70%; remaining activity at 10 µM [30]: 1.86%; remaining activity at 10 µM [31]: 67.6%; remaining activity at 10 µM [32]: 2.85%; remaining activity at 10 µM [33]: 20.3%; remaining activity at 10 µM [34]: 24.8%; remaining activity at 10 µM [35]: 71.9%; remaining activity at 10 µM [36]: 3.03%; remaining activity at 10 µM [37]: 76.6%; remaining activity at 10 µM [38]: 30.3%; remaining activity at 10 µM [39]: 1.13%; remaining activity at 10 µM [40]: 3.88%; remaining activity at 10 µM [41]: 99.5%; remaining activity at 10 µM [42]: 6.48%; remaining activity at 10 µM [43]: 1.25%

— PMC9569420 (Communications Biology, 2022)
